pIC50: −log10 of the molar value. Each block holds one compound with its values, some of them ahead of it.
How the values were obtained:
human MAO-A = target: T1, human MAO-A (Homo sapiens, UniProt P21397); assay: Inhibition of MAO-A, MAO-Glo assay kit; format: biochemical; conditions: Table 2; 100 nM MAO-A, 60 min
T1 construct: purchased Sigma
T1 sequence (P21397 1-527): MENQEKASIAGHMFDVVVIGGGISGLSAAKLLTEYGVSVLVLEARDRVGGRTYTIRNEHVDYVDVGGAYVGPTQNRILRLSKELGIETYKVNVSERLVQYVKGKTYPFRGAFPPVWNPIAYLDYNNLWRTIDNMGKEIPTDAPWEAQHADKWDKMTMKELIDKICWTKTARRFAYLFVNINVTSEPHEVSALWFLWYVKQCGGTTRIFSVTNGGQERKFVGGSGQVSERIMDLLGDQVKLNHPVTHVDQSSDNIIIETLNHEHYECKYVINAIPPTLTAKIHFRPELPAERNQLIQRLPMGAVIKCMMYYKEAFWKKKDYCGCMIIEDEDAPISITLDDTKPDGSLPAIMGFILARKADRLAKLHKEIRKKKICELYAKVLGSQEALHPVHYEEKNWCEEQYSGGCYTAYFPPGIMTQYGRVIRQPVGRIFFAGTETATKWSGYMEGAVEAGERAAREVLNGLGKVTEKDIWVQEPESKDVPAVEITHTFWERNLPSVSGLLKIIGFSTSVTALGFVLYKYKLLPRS
Procedure: (§1) Inhibition of MAO-A and -B was determined using MAO-Glo assay kit (Promega). Following the manufacturer’s protocol, assays were performed in 384 well white plates (Corning) in the presence of 100 nM MAO-A/-B (Sigma) and MAO substrate. The final volume of each reaction mixture was 20 μL. Reactions were quenched after 60 min by adding reconstituted luciferin detection reagent (20 μL/well). 20 min after addition of detection reagent, the plate was measured in luminescence mode using Beckman DTX-880 microplate reader. IC50 calculation was done similarly.

recombinant human LSD1 = target: T2, recombinant human LSD1 (Homo sapiens, UniProt O60341); assay: LSD1 enzyme inhibition, HRP-coupled Amplex red assay; format: biochemical; conditions: for Selectivity index for LSD1: LSD1 versus MAO-A and -B; for fold less active against LSD1 than 10: comparator compound 10; for fold more active against LSD1 than compound 24: comparator compound 24; for selectivity for LSD1 inhibition: LSD1 over MAO-A/-B
T2 construct: Human LSD1 catalytic domain, consisting of residues 172–833; GST (N); made in house; host or cells: Escherichia coli BL21-CodonPlus
Procedure: Human LSD1 catalytic domain, consisting of residues 172–833, was expressed in Escherichia coli BL21-CodonPlus strain (Agilent) as a GST fusion protein, by using a pGEX-KG vector. Briefly, the cells were grown to late log phase at 37°C and then were induced overnight with 0.2 mM IPTG at 25°C. Cells were harvested and lysed by French Press in PBS buffer and the supernatant was subjected to an affinity column chromatography using the glutathione sepharose resin. The eluted LSD1 fractions were further purified with ~90% purity by gel filtration on a Superdex 200 column (GE healthcare).
Horseradish peroxidase (HRP)-coupled assay was used for the evaluation of the inhibitors, based on the reaction rate (i.e., amount of the product H2O2) being quantitatively determined by adding HRP and a HRP fluorescence substrate Amplex red.[20] 30 nM LSD1 was incubated with increasing concentrations of a compound in 50 mM phosphate buffer (pH = 7.0 containing 0.01% Brij-35) for 30 min at 25°C. […] The final volume of the reaction is 60 μL. Upon 20 min incubation, 60 μL solution containing HRP (0.01 unit) and Amplex red (80 μM) was added to quench the reaction. The fluorescence of each well was then determined using a Beckman DTX-880 microplate reader (excitation at 535; emission at 595 nm). Data were imported into Prism 5.0 (GraphPad) and the IC50 values were calculated by using the sigmoidal dose response curve fitting in the software. The reported IC50s were the mean values of at least three independent experiments.

human MAO-B = target: T3, human MAO-B (Homo sapiens, UniProt P27338); assay: Inhibition of MAO-B, MAO-Glo assay kit; format: biochemical; conditions: Table 2; 100 nM MAO-B, 60 min
T3 construct: purchased Sigma
T3 sequence (P27338 1-520): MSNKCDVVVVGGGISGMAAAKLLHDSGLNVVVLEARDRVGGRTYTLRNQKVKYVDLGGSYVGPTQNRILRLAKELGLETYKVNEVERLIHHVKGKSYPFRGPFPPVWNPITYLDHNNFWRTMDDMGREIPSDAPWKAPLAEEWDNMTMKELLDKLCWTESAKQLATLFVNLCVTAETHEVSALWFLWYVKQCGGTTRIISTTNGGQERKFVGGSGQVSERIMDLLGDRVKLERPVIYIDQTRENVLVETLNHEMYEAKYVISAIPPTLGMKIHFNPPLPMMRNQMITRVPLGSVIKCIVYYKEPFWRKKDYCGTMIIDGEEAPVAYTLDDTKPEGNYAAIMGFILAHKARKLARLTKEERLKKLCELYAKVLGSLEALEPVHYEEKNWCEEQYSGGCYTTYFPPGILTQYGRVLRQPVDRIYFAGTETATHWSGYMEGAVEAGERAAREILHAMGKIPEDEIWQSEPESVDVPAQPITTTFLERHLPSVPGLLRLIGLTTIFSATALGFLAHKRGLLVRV
Procedure: as §1

MAO-A and -B = assay: Inhibition of MAO-A/-B, MAO-Glo assay kit, one range given over both enzymes; format: biochemical, human; conditions: range over both enzymes and the named compounds; read-out: IC50 against MAO-A and -B
Procedure: as §1

[1] = Table 1, 30 nM LSD1, 30 min preincubation, 10 μM H3K4Me2 peptide

SMILES: CN1CCN(C(=O)CNC2CC2c2ccc(-c3ccc(F)nc3)cc2)CC1 (racemic) [Compound 2, reference compound]
pIC50 (human MAO-A): 3.92
pIC50 (recombinant human LSD1; [1]): 7.11
pIC50 (recombinant human LSD1; Table 2): 7.11
Selectivity index for LSD1 (recombinant human LSD1; Table 2): >1,500
pIC50 (human MAO-B): 3.32

SMILES: CN1CCN(C(=O)CNC2CC2c2ccc(Br)cc2)CC1 (racemic) [Compound 3, reference compound]
pIC50 (human MAO-A): 5.14
pIC50 (recombinant human LSD1; [1]): 7.46
pIC50 (recombinant human LSD1; Table 2): 7.46
Selectivity index for LSD1 (recombinant human LSD1; Table 2): >208
pIC50 (human MAO-B): 4.79

SMILES: CN1CCN(C(=O)CNC2CC2c2ccc(-c3ccc(Cl)nc3)cc2)CC1 (racemic) [Compound 4]
pIC50 (recombinant human LSD1; [1]): 6.82

SMILES: CN1CCN(C(=O)CNC2CC2c2ccccc2Br)CC1 (racemic) [Compound 5]
pIC50 (recombinant human LSD1; [1]): < 4.00

SMILES: CN1CCN(C(=O)CNC2CC2c2cccc(Br)c2)CC1 (racemic) [Compound 6]
pIC50 (recombinant human LSD1; [1]): < 4.00

SMILES: NC1CC1c1ccc(OCc2ccccc2)cc1 (racemic) [Compound 7]
pIC50 (human MAO-A): 6.77
fold less active against LSD1 than the corresponding compounds 1–3 (recombinant human LSD1; 7 vs 1, 8 vs 2, 9 vs 3): 92 fold
pIC50 (recombinant human LSD1; [1]): 6.04
pIC50 (recombinant human LSD1; Table 2): 6.04
Selectivity index for LSD1 (recombinant human LSD1; Table 2): <0.38
pIC50 (MAO-A and -B): 5.51 to 6.77
pIC50 (human MAO-B): 6.46

SMILES: O=C(CNC1CC1c1ccc(Br)cc1)N1CCNCC1 (racemic) [Compound 10]
pIC50 (human MAO-A): 4.74
pIC50 (recombinant human LSD1; [1]): 7.19
pIC50 (recombinant human LSD1; Table 2): 7.19
Selectivity index for LSD1 (recombinant human LSD1; Table 2): >280
pIC50 (human MAO-B): 4.64

SMILES: O=C(CNC1CC1c1ccc(Br)cc1)N1CCCCC1 (racemic) [Compound 11]
pIC50 (human MAO-A): 6.59
pIC50 (recombinant human LSD1; [1]): 6.21
pIC50 (recombinant human LSD1; Table 2): 6.21
Selectivity index for LSD1 (recombinant human LSD1; Table 2): <0.82
fold less active against LSD1 than 10 (recombinant human LSD1): ~ 10 ×
pIC50 (human MAO-B): 6.29

SMILES: O=C(CNC1CC1c1ccc(Br)cc1)N1CCCC1 (racemic) [Compound 12]
pIC50 (recombinant human LSD1; [1]): 5.44
fold less active against LSD1 than 10 (recombinant human LSD1): ~56 ×

SMILES: O=C(CNC1CC1c1ccccc1)N1CCNCC1 (racemic) [Compound 13]
pIC50 (recombinant human LSD1; [1]): 6.72
fold more active against LSD1 than 14 (recombinant human LSD1; comparator compound 14): ~ 7 fold

SMILES: O=C(CNC1CC1c1ccccc1)N1CCCCC1 (racemic) [Compound 14]
pIC50 (recombinant human LSD1; [1]): 5.89

SMILES: Brc1ccc(C2CC2NCC2CCNCC2)cc1 (racemic) [Compound 15]
pIC50 (recombinant human LSD1; [1]): 6.59

SMILES: Oc1ccc(CNC2CC2c2ccc(Br)cc2)cc1 (racemic) [Compound 18]
pIC50 (recombinant human LSD1; [1]): 4.03

SMILES: Nc1ccc(CNC2CC2c2ccc(Br)cc2)cc1 (racemic) [Compound 19]
pIC50 (recombinant human LSD1; [1]): < 4.00

SMILES: CN(C)c1ccc(CNC2CC2c2ccc(Br)cc2)cc1 (racemic) [Compound 20]
pIC50 (recombinant human LSD1; [1]): 4.15

SMILES: Brc1ccc(C2CC2NCc2ccncc2)cc1 (racemic) [Compound 21]
pIC50 (recombinant human LSD1; [1]): < 4.00

SMILES: CC(=O)NC1CC1c1ccc(Br)cc1 (racemic) [Compound 22]
pIC50 (recombinant human LSD1; [1]): 4.81

SMILES: O=C(Nc1ccccc1)NC1CC1c1ccc(Br)cc1 (racemic) [Compound 23]
pIC50 (recombinant human LSD1; [1]): 5.13

SMILES: Brc1ccc(C2CC2N=Cc2ccccc2)cc1 (racemic) [Compound 24]
pIC50 (recombinant human LSD1; [1]): 4.81

SMILES: Brc1ccc(C=NC2CC2c2ccc(Br)cc2)cc1 (racemic) [Compound 25]
pIC50 (recombinant human LSD1; [1]): 5.92
fold more active against LSD1 than compound 24 (recombinant human LSD1): > 10 ×

SMILES: COc1ccccc1C=NC1CC1c1ccc(Br)cc1 (racemic) [Compound 26]
pIC50 (human MAO-A): 6.52
selectivity for LSD1 inhibition (recombinant human LSD1): no LSD1 selectivity was observed
pIC50 (recombinant human LSD1; [1]): 6.13
pIC50 (recombinant human LSD1; Table 2): 6.13
Selectivity index for LSD1 (recombinant human LSD1; Table 2): <0.54
fold more active against LSD1 than compound 24 (recombinant human LSD1): > 10 ×
pIC50 (human MAO-B): 6.40

SMILES: COc1cccc(C=NC2CC2c2ccc(Br)cc2)c1 (racemic) [Compound 27]
pIC50 (recombinant human LSD1; [1]): 6.05
fold more active against LSD1 than compound 24 (recombinant human LSD1): > 10 ×

SMILES: CN(C)c1ccc(C=NC2CC2c2ccc(Br)cc2)cc1 (racemic) [Compound 29]
LSD1 inhibitory activity in words (recombinant human LSD1): only modest activities
pIC50 (recombinant human LSD1; [1]): 4.96

SMILES: Brc1ccc(C2CC2N=Cc2ccncc2)cc1 (racemic) [Compound 30]
LSD1 inhibitory activity in words (recombinant human LSD1): only modest activities
pIC50 (recombinant human LSD1; [1]): 4.85

SMILES: O=C(CNNC1CC1c1ccccc1)N1CCNCC1 (racemic) [Compound 32]
pIC50 (human MAO-A): 4.01
selectivity for LSD1 inhibition (recombinant human LSD1): > 150 fold
pIC50 (recombinant human LSD1; [1]): 6.17
pIC50 (recombinant human LSD1; Table 2): 6.17
Selectivity index for LSD1 (recombinant human LSD1; Table 2): >145
fold less active against LSD1 than cyclopropylamine analog 13 (recombinant human LSD1; comparator compound 13): ~ 3 ×
fold enhanced LSD1 activity over 31 (recombinant human LSD1; comparator compound 31): ~ 9 fold
pIC50 (human MAO-B): 3.43

SMILES: O=C(NNC1CC1c1ccccc1)N1CCNCC1 (racemic) [Compound 33]
pIC50 (recombinant human LSD1; [1]): 4.08

SMILES: Brc1ccc(C2CC2NNCC2CCNCC2)cc1 (racemic) [Compound 34]
pIC50 (recombinant human LSD1; [1]): 5.77
fold less active against LSD1 than cyclopropylamine analog 15 (recombinant human LSD1; comparator compound 15): ~ 7 ×

SMILES: Brc1ccc(C2CC2NCc2ccccc2)cc1 (stereo not shown) [Compound 17]
pIC50 (recombinant human LSD1; [1]): 5.30

SMILES: NNC1CC1c1ccccc1 (stereo not drawn) [Compound 31, Trans-phenyl cyclopropyl hydrazine]
pIC50 (human MAO-A): 4.39
pIC50 (recombinant human LSD1; [1]): 5.24
Selectivity index for LSD1 (recombinant human LSD1; Table 2): >7
pIC50 (human MAO-B): 4.06

pIC50 (recombinant human LSD1; [1]): 4.44
SMILES: CN1CCN(C(=O)CNCC#Cc2ccccc2)CC1 [Compound 35, 1-(4-methylpiperazin-1-yl)-2-((3-phenylprop-2-yn-1-yl)amino)ethan-1-one]

From paper PMC5291514, “Structure activity relationship and modeling studies of inhibitors of lysine specific demethylase 1” (PLoS ONE, 2017)
